The values that follow are results of earlier work, collected in paper PMC10299363 (International Journal of Molecular Sciences, 2023).

In data set [1] the test system is chemically induced PDACs. As to conditions: subcutaneous injection, rats. The source says: The galaninergic system is also involved in tumorigenesis, the invasion/migration of tumor cells and angiogenesis, and has been correlated with the tumor stage, proliferation, metastasis, and recurrence rate. […] The inactivation of GAL2R by promoter hypermethylation decreased disease-free survival. GAL2R strongly exerted anti-tumor activity via two important mechanisms: (1) tumor cell cycle arrest mediated via the extracellular-regulated protein kinase-1/2 (ERK1/2)-dependent effects on the cyc ...

The test system of data set [2] is GAL2R.
In data set [3] the test system is GAL3R.
The test system of data set [4] is insulin secretion.
Data set [5] relates to head and neck cancer. The following applies: via activation of PBMCs.

With “galanin: 30 amino acid peptide that stimulates three subtype receptors (GAL1–3R)”, in data set [1], the “number of chemically induced PDACs” value is “reduced the number of chemically induced PDACs”. Further, the “binding to GAL2R” value in data set [2] was “binds”. In addition, in data set [3], the “binding to GAL3R” value was “binds”. The “effect on insulin secretion” value in data set [4] is given as “strong inhibitory effects toward insulin secretion”. For the same substance, the “effect in head and neck cancer” value in data set [5] is given as “pro-tumor effects”.

For “linear angiotensin: linear angiotensin (ref 33: radioiodinated angiotensin II) (DRVYIHPF; Angiotensin-2; UniProt P01019 25-32, looked up)”, the breakdown in vivo entry was “broken down within a minute”.
